Structures are written as SMILES. Values after ≈ are worked out from the molar mass of the structure shown. Some results are limits rather than exact numbers.

By solubility is commonly meant how much of the substance goes into solution per volume. As a reminder, the half-life is how long it takes for the measured level to halve. High values mean slow decline, low ones rapid decline.

One data set in a line: physchem. The settings on record: buffer, pH 7.4.
The nature of another data set: in vitro. The settings on record: CD-1, mouse, liver microsomes. (Liver microsomes are vesicles of endoplasmic reticulum, rich in cytochrome P450 enzymes.)

Consider `CCC(=O)c1ccc(NC(=O)Nc2ccc(-c3nc(N4CCOCC4)c4cccnc4n3)cc2)cc1`, for which the solubility at 1.5 h, 200 µM in “physchem” amounted to 11.4 µM (≈ 5.5 µg/mL). In “in vitro”, this compound showed a half-life at 1 µM of over 60 min.

In “physchem”, `O=C(Nc1ccc(-c2nc(N3CCOCC3)c3cccnc3n2)cc1)Nc1ccc(S(=O)(=O)Nc2ccc(F)cc2)cc1` registered a solubility at 1.5 h, 200 µM of 4.2 µM (≈ 2.52 µg/mL). The same compound came in with a half-life at 1 µM in “in vitro” of 59.6 min.

`O=C(Nc1ccc(C(=O)CCl)cc1)Nc1ccc(-c2nc(N3CCOCC3)c3ncccc3n2)cc1` gave a solubility at 1.5 h, 200 µM in “physchem” of under 2 µM. The compound also returned a half-life at 1 µM in the data set “in vitro” of over 60 min.

Regarding `O=C(Nc1ccc(-c2nc(N3CCOCC3)c3ncccc3n2)cc1)Nc1ccc(S(=O)(=O)Nc2ccc(F)cc2)cc1`, in “physchem”, the solubility at 1.5 h, 200 µM was under 2 µM. The compound also returned a half-life at 1 µM in “in vitro” of over 60 min.

Take `CC(=O)c1ccc(NC(=O)Nc2ccc(-c3nc(N4CCOCC4)c4cccnc4n3)cc2)cc1`: in the data set “physchem”, the solubility at 1.5 h, 200 µM was under 2 µM. Besides, in the data set “in vitro”, the half-life at 1 µM turned out to be 59 min.

Consider `O=C(Nc1ccc(-c2nc(N3CCOCC3)c3ncccc3n2)cc1)Nc1ccc(S(=O)(=O)Nc2ccc(F)cc2F)cc1`, for which the solubility at 1.5 h, 200 µM in “physchem” was under 2 µM. In “in vitro”, this compound came in with a half-life at 1 µM of over 60 min.

`CCOC(=O)c1ccc(NC(=O)Nc2ccc(-c3nc(N4CCOCC4)c4cccnc4n3)cc2)cc1` displayed a solubility at 1.5 h, 200 µM in the data set “physchem” of under 2 µM. This compound had a half-life at 1 µM in the data set “in vitro” of over 60 min.

In “physchem”, `O=C(Nc1ccc(-c2nc(N3CCOCC3)c3cccnc3n2)cc1)Nc1ccc(S(=O)(=O)Nc2ccccc2)cc1` had a solubility at 1.5 h, 200 µM of under 2 µM. This compound showed a half-life at 1 µM in the data set “in vitro” of 26.9 min.

`O=C(Nc1ccc(-c2nc(N3CCOCC3)c3cccnc3n2)cc1)Nc1ccc(S(=O)(=O)Nc2ccc(F)cc2F)cc1` returned a solubility at 1.5 h, 200 µM in “physchem” of under 2 µM. In addition, in the data set “in vitro”, the half-life at 1 µM was found to be 60 min.

In the data set “physchem”, `O=C(Nc1ccc(-c2nc(N3CCOCC3)c3cccnc3n2)cc1)Nc1cccc(CO)c1` yielded a solubility at 1.5 h, 200 µM of 21.8 µM (≈ 9.95 µg/mL). This compound returned a half-life at 1 µM in the data set “in vitro” of 30 min.

In turn, `O=C(Nc1ccccc1)Nc1ccc(-c2nc(N3CCOCC3)c3ncccc3n2)cc1` showed a solubility at 1.5 h, 200 µM in “physchem” of under 2 µM. This compound gave a half-life at 1 µM in the data set “in vitro” of 22.3 min.

`O=C(Nc1ccc(-c2nc(N3CCOCC3)c3ncccc3n2)cc1)Nc1ccc(S(=O)(=O)Nc2ccccc2)cc1` showed a solubility at 1.5 h, 200 µM in the data set “physchem” of under 2 µM. This compound had a half-life at 1 µM in “in vitro” of 16.6 min.

Compound `O=C(Nc1ccc(CCO)cc1)Nc1ccc(-c2nc(N3CCOCC3)c3ncccc3n2)cc1` displayed a solubility at 1.5 h, 200 µM in “physchem” of under 2 µM. For the same compound, the half-life at 1 µM in “in vitro” was over 60 min.

`Oc1cccc(-c2nc(N3CCOCC3)c3oc4ncccc4c3n2)c1` [PI-103] came in with a solubility at 1.5 h, 200 µM in the data set “physchem” of 3.4 µM (≈ 1.18 µg/mL). Moreover, the half-life at 1 µM in “in vitro” came to 7.1 min.

Source of the values: ChEMBL document CHEMBL4020805, “Design, synthesis and SAR of new-di-substituted pyridopyrimidines as ATP-competitive dual PI3Kα/mTOR inhibitors” (Bioorg Med Chem Lett, 2017).
